Among the test systems are DMS 273 small cell lung; HOP-18 NSCLC; OVCAR-4 ovarian; M19-MEL melanoma; UO-31 renal; IGROV1 ovarian; XF 498 CNS; CAKI-1 renal; SNB-78 CNS; DLD-1 colon; TK-10 renal; MDA-MB-435; BT-549 breast; DU-145 prostate.
Holding throughout (experiment): growth of human tumour cells (NCI), 48 h

Among the data in PubChem BioAssay (NCI) are TGI and GI50 values, retold here.

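Where inhibition never reached the appropriate level, the endpoint shown equals the highest concentration tested. Otherwise, values were interpolated linearly from a five-concentration, 48-hour dose response in 96-well plates. GI50 is the concentration that inhibits growth by half. TGI: total growth inhibition.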

With `C=CCCCCCCCCC(=O)O`, the TGI was found to be 289 µM with DMS 273 small cell lung; 226 µM in the assay on HOP-18 NSCLC; 341 µM in the assay on OVCAR-4 ovarian; 449 µM in the assay with M19-MEL melanoma; 162 µM in the assay with UO-31 renal; 287 µM in the assay on IGROV1 ovarian. Besides, the TGI with XF 498 CNS is 30.9 µM; in the assay on CAKI-1 renal it was 214 µM; with SNB-78 CNS, 607 µM; in the assay on DLD-1 colon, 163 µM.

As for `Cc1ccc(-c2cc(-c3ccco3)c(C#N)c(=O)n2C2OC(CO)C(O)C(O)C2O)cc1` (stereo not drawn), the TGI in the assay with DMS 273 small cell lung, in the assay with HOP-18 NSCLC, in the assay on OVCAR-4 ovarian, in the assay with TK-10 renal, in the assay on UO-31 renal and in the assay on IGROV1 ovarian was greater than 100 µM in each case. The TGI in the assay on SNB-78 CNS and with DLD-1 colon was greater than 100 µM each time.

In the case of `CN(C(=O)c1ccc(OCCCC(=O)O)c(Cl)c1Cl)C1CCCC1`, the TGI in the assay with DMS 273 small cell lung, with HOP-18 NSCLC, in the assay with OVCAR-4 ovarian, with M19-MEL melanoma, with UO-31 renal and in the assay with IGROV1 ovarian was greater than 100 µM throughout. For the same molecule, the TGI with XF 498 CNS is 85.2 µM; in the assay with CAKI-1 renal, greater than 100 µM; with SNB-78 CNS, greater than 100 µM; in the assay with DLD-1 colon it was greater than 100 µM.

With `COc1cc(C=O)cc(O)c1O`, the TGI in the assay on DMS 273 small cell lung, with M19-MEL melanoma, in the assay with TK-10 renal, with UO-31 renal, with IGROV1 ovarian and in the assay on SNB-78 CNS was greater than 100 µM in each case. In the assay on DLD-1 colon, this molecule had a TGI greater than 100 µM.

For the molecule `CCOC(=O)C(=O)NC12CC3CC(CC(C3)C1)C2`, the TGI with DMS 273 small cell lung, with HOP-18 NSCLC, in the assay with OVCAR-4 ovarian, in the assay with TK-10 renal, in the assay with UO-31 renal and with IGROV1 ovarian was greater than 100 µM throughout. Besides, the TGI with XF 498 CNS, with CAKI-1 renal and in the assay on DLD-1 colon was greater than 100 µM each time.

Take `COc1cccc2c1C(=O)c1c(O)c3c(c(O)c1C2=O)C[C@@](O)(C(=O)CO)CC3OC1CC(NCCCC(OC(C)=O)OC(C)=O)C(O)C(C)O1` (stereo partly drawn): the GI50 in the assay on HOP-18 NSCLC is 0.00507 µM; in the assay with OVCAR-4 ovarian, less than 0.0001 µM; in the assay on M19-MEL melanoma it was less than 0.0001 µM; in the assay with TK-10 renal, 0.363 µM; in the assay with IGROV1 ovarian it was 0.000754 µM; with XF 498 CNS, 0.0001 µM. The TGI in the assay on M19-MEL melanoma is 0.000323 µM; in the assay on TK-10 renal it was greater than 1 µM; with UO-31 renal, 0.00427 µM; in the assay with IGROV1 ovarian, greater than 1 µM.

Take `CC(=O)Nc1ccc(Sc2nnc(NC(C)=O)s2)cc1`: the TGI in the assay on OVCAR-4 ovarian, with TK-10 renal, in the assay on UO-31 renal, with IGROV1 ovarian and in the assay on MDA-MB-435 was greater than 100 µM each time.

For the molecule `O=[N+]([O-])C(=C/c1cccs1)/C(=C\c1cccs1)[N+](=O)[O-]`, the TGI is 4.27 µM with BT-549 breast; 7.41 µM in the assay on OVCAR-4 ovarian; 7.76 µM in the assay with TK-10 renal; 2.23 µM with MDA-MB-435; 1.41 µM in the assay on CAKI-1 renal; 3.53 µM in the assay with DU-145 prostate.

In the case of `Cn1c(=O)c(Cl)c(N=[N+]=[N-])c2ccccc21`, the TGI with OVCAR-4 ovarian, in the assay on TK-10 renal, in the assay with UO-31 renal, in the assay with IGROV1 ovarian, in the assay with CAKI-1 renal and in the assay with DU-145 prostate was greater than 100 µM each time.

For `COC1C(O)C(C)OC(OC2CCC3(C)C(CCC4C3C(O)CC3(C)C(C5=CC(=O)OC5)CCC43O)C2)C1O` (stereo not drawn), the TGI is 0.429 µM with BT-549 breast; 1.57 µM in the assay with TK-10 renal; 10.7 µM with IGROV1 ovarian; 1.24 µM in the assay on MDA-MB-435; 0.469 µM in the assay with CAKI-1 renal; 0.173 µM in the assay on DU-145 prostate.

Regarding `O=C1c2ccccc2C(=O)N1CC(CN1C(=O)c2ccccc2C1=O)(C(=O)OCc1ccccc1)C(=O)OCc1ccccc1`, the TGI with BT-549 breast, with UO-31 renal, with IGROV1 ovarian, in the assay with MDA-MB-435, in the assay with CAKI-1 renal and with DU-145 prostate was greater than 100 µM in each case.

`CCOC(=O)C(OP(=O)(OCC)OCC)C(F)(F)F` (stereo not drawn): the TGI in the assay with BT-549 breast, in the assay on TK-10 renal, with UO-31 renal, in the assay with MDA-MB-435 and with DU-145 prostate was greater than 100 µM in each case.
